This note sets out measurements from PubChem BioAssay AID1949 (Southern Research Institute, 2009).

Broadly, the IC50 is the concentration needed to halve the response being measured.

The structures appear in SMILES notation. Converted amounts (≈) assume the structure as drawn. Inconclusive results are not listed. The source made the active and inactive calls. The rule behind the calls is not given here.

For this test, the system named is M. tuberculosis H37Rv growth inhibition. As to the kind of experiment: Mycobacterium tuberculosis H37Rv growth inhibition, cell based, confirmatory dose response (AID 1949).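 Note: bacteria grown 7 days with compound before Alamar blue readout.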

In the case of `Clc1ccc(CN2CCN(c3ncnc4scc(-c5cccs5)c34)CC2)cc1`, the IC50 was 20.5 µg/mL (≈ 48.1 µM).

`O=C(Nc1ccc(Cl)cc1)Nc1ccc(F)c(F)c1`: the IC50 was 0.94 µg/mL (≈ 3.33 µM).

As to `COc1ccccc1Nc1nc(N)nc(CN2CCC(Cc3ccccc3)CC2)n1`, the IC50 was 37.8 µg/mL (≈ 93.5 µM).

With `CN1CCN(C(=S)NC(=O)c2ccc(-c3ccccc3)cc2)CC1`, the 50% inhibitory concentration (IC50) is 1.04 µg/mL (≈ 3.06 µM).

`CCOc1cc(CNCc2ccccc2OCc2ccccc2)cc(Cl)c1OCC`: the IC50 was 1.94 µg/mL (≈ 4.55 µM).

As to `COc1cc(CNc2ccc(F)c(Cl)c2)ccc1OCC(=O)NC1CCCCC1`, the IC50 is 5.53 µg/mL (≈ 13.1 µM).

Take `CCCn1nnc(NC(=O)COc2ccc(C3CCCCC3)cc2)n1`: the IC50 was 0.64 µg/mL (≈ 1.86 µM).

For `CCS(=O)(=O)c1nnnn1-c1ccccc1F`, the IC50 was > 50 µg/mL (inactive).

As to `O=C(Nc1ccc2ccccc2c1)Nc1ccc2snnc2c1`, the 50% inhibitory concentration (IC50) was 0.9 µg/mL (≈ 2.81 µM).

On to `Cc1ccc(-c2csc3nc(SCC(N)=O)n(-c4ccccc4)c(=O)c23)cc1C`, for which the IC50 is 2.98 µg/mL (≈ 7.07 µM).

Take `COc1cccc(-n2nnnc2S(C)(=O)=O)c1`: the IC50 is 1.16 µg/mL (≈ 4.56 µM).

On to `O=c1oc(-c2ccccc2Br)nc2sc3c(c12)CCCC3`, for which the IC50 was 0.98 µg/mL (≈ 2.71 µM).

For the molecule `CC(C)C1C(c2ccccc2)NC(c2ccccc2)CC1(O)C#Cc1ccccc1` (configuration not stated), the IC50 is 9.22 µg/mL (≈ 23.3 µM).

For `CCOC(=O)c1sc(NC(=O)NC2CCCCC2)cc1C`, the half-inhibitory concentration (IC50) was 0.75 µg/mL (≈ 2.42 µM).

In the case of `Cc1ccc(Oc2nc(-c3cccnc3)nc3ccccc23)cc1C`, the IC50 was 15.8 µg/mL (≈ 48.4 µM).

Regarding `CCOC(=O)COc1ccc(S(=O)(=O)Nc2c(C)cccc2CC)cc1`, the IC50 is 0.33 µg/mL (≈ 0.874 µM).

On to `CC1(C)Cc2c(sc3nc(SCC(=O)Nc4ccc(Br)cc4)nc(N)c23)CS1`, for which the IC50 is 6.22 µg/mL (≈ 12.6 µM).

Consider `O=C1c2cccc3cccc(c23)C(=O)N1CCN1CCN(CCc2ccccc2)CC1`, for which the IC50 was 23.8 µg/mL (≈ 57.5 µM).

With `CC1CCCCC1NC(=O)CSc1nc2ccccc2c(=O)[nH]1` (configuration not stated), the IC50 was 18.4 µg/mL (≈ 55.5 µM).

For `COC(=O)COc1ccc2cc(-c3ccc(Cl)cc3)c(=O)oc2c1`, the IC50 is 18.8 µg/mL (≈ 54.6 µM).

`O=C(Nc1cccc2ncccc12)c1ccc([N+](=O)[O-])o1`: the IC50 is 4.28 µg/mL (≈ 15.1 µM).

Regarding `CC(=O)c1c(C)n([O-])c2cc(Cl)c(Cl)cc2[n+]1=O`, the IC50 is 5.48 µg/mL (≈ 19.1 µM).

Turning to `CCOC(=O)COc1ccc(C(=O)Nc2cccc(Cl)c2C)cc1`, the IC50 was less than 0.1 µg/mL.

For the molecule `COC(=O)C(C)Oc1ccc2c(=O)c(-c3ccc(Br)cc3)c(C)oc2c1` (configuration not stated), the IC50 was 2.42 µg/mL (≈ 5.8 µM).

Consider `S=C(NCCc1ccccc1)Nc1ccc(Nc2ccccc2)cc1`, for which the IC50 was 3.85 µg/mL (≈ 11.1 µM).

As for `COc1ccc(CCCC(=O)Nc2ccc(Cl)c(Cl)c2)c(C)c1`, the IC50 was 8.81 µg/mL (≈ 25 µM).

Consider `Cc1sc2ncnc(N3CCN(CCOc4ccc(Cl)cc4)CC3)c2c1C`, for which the IC50 was > 50 µg/mL (inactive).

Regarding `CCOC(=O)C(C)Oc1noc2nc(-c3ccccc3)ccc12` (configuration not stated), the IC50 was 3.92 µg/mL (≈ 12.6 µM).

As for `CCc1ccc(NC(=S)Nc2ccc(Cl)c(Cl)c2)cc1`, the IC50 is 1.38 µg/mL (≈ 4.24 µM).

Consider `O=C(COc1ccc(Br)cc1)c1ccc(F)cc1`, for which the 50% inhibitory concentration (IC50) is 10.7 µg/mL (≈ 34.5 µM).

As for `CC1CCN(c2nnnc3c2sc2nc(N4CCOCC4)c4c(c23)CCCC4)CC1`, the IC50 was > 50 µg/mL (inactive).

`CCn1c(Sc2ncnc3ccccc23)nc2ccccc21`: the IC50 was 2.77 µg/mL (≈ 9.04 µM).

Consider `O=C(CCN1CCc2ccccc2CC1)c1ccc2c(c1)OCCO2`, for which the IC50 is 8.36 µg/mL (≈ 24.8 µM).

Turning to `O=[N+]([O-])c1c(Nc2ccccc2)[nH]c2ccccc12`, the IC50 was 9.27 µg/mL (≈ 36.6 µM).

For the molecule `O=C(NCc1ccc(Cl)cc1)c1ccccc1-c1ccccc1`, the IC50 is 13.2 µg/mL (≈ 41.1 µM).

Consider `O=C(Nc1ccc(F)cc1)NC1CCCCCCC1`, for which the IC50 was 2.53 µg/mL (≈ 9.57 µM).

Take `COC(=O)C(C)Oc1ccc2c(=O)c(-c3ccc(Cl)cc3)coc2c1` (configuration not stated): the IC50 was 4.23 µg/mL (≈ 11.8 µM).

As for `CN(C)C(=S)NC(=O)c1cccc(Cl)c1`, the IC50 is 4.63 µg/mL (≈ 19.1 µM).

For `COc1cc(Br)cc2cc(C(=O)Nc3ccccc3O)c(=O)oc12`, the IC50 was > 50 µg/mL (inactive).

As to `CCOC(=O)C(C)Oc1ccc2c(=O)c(-c3ccc(Cl)cc3)coc2c1` (configuration not stated), the IC50 is > 50 µg/mL (inactive).

In the case of `O=C(Nc1ccc(F)c(Cl)c1)C12CC3CCC(CC(C3)C1)C2`, the IC50 is less than 0.1 µg/mL.

Consider `O=C(c1cccc(Cl)c1)N1N=C(c2ccc(Cl)cc2)CC1(O)C(F)(F)F` (configuration not stated), for which the half-inhibitory concentration (IC50) is 3.82 µg/mL (≈ 9.47 µM).

`Cc1cc(OCCOCCn2ccnc2)cc(C(C)C)c1`: the IC50 is > 50 µg/mL (inactive).

For the molecule `CCCOC(=O)c1ccc(NC(=S)NC(=O)c2ccc(Cl)cc2)cc1`, the IC50 is 0.8 µg/mL (≈ 2.12 µM).

In the case of `O=C(Nc1cccc2cccnc12)c1ccc([N+](=O)[O-])o1`, the IC50 is 8.91 µg/mL (≈ 31.5 µM).

Consider `O=Cc1c(Nc2ccccc2)nc2ccccn2c1=O`, for which the IC50 is 6.7 µg/mL (≈ 25.3 µM).

For `COc1cc(/C=C/c2ccc3cccc(OC)c3n2)c(Cl)cc1OC(C)=O`, the IC50 was 35.3 µg/mL (≈ 92 µM).

For `CC12CC3CC(C)(C1)CC(CNCc1ccccc1O)(C3)C2`, the IC50 was 2.89 µg/mL (≈ 9.65 µM).

Take `Cc1nc(SCc2csc(C)n2)c2c3c(sc2n1)CCCC3`: the IC50 was 1.61 µg/mL (≈ 4.63 µM).

As to `Cc1ccc(CNC(=O)c2ccc(C)cc2Cl)cc1`, the IC50 is > 50 µg/mL (inactive).

Consider `C=CCc1cc(Cl)ccc1OCCCNCCCC`, for which the IC50 is 5.34 µg/mL (≈ 18.9 µM).

Consider `Cc1ccc2c(c1)c(-c1ccccc1)c(-c1ccccc1)n2CC(O)CN1CCN(CCO)CC1` (configuration not stated), for which the IC50 was 1.84 µg/mL (≈ 3.92 µM).
